{
  "source": "paper PMC7666069",
  "about": "(Journal of medicinal chemistry, 2020)",
  "key": {"CB1 receptor": {"tested_on": "CB1 receptor", "conditions": "cited from earlier work"}, "5-HT2C": {"target": "T1, 5-HT2C (Homo sapiens, UniProt P28335)", "T1 sequence (P28335 33-458)": "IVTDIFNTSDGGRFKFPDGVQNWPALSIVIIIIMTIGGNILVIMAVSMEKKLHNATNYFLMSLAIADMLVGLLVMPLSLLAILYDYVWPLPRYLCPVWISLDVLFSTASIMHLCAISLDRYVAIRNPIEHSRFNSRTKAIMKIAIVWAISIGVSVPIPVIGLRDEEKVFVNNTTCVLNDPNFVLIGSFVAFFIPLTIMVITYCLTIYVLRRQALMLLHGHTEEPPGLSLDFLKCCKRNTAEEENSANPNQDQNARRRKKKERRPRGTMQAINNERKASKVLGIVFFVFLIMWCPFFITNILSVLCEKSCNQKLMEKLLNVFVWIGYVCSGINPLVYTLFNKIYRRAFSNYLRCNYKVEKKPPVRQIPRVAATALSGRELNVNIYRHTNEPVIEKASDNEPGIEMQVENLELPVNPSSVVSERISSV", "experiment": "PDSP receptor profiling", "assay_type": "binding"}, "[1]": {"conditions": "patients with schizophrenia, 800 mg/day, not placebo-controlled; cited from earlier work"}, "ɑ2b": {"target": "T2, ɑ2b (Homo sapiens, UniProt P18089)", "T2 sequence (P18089 1-450)": "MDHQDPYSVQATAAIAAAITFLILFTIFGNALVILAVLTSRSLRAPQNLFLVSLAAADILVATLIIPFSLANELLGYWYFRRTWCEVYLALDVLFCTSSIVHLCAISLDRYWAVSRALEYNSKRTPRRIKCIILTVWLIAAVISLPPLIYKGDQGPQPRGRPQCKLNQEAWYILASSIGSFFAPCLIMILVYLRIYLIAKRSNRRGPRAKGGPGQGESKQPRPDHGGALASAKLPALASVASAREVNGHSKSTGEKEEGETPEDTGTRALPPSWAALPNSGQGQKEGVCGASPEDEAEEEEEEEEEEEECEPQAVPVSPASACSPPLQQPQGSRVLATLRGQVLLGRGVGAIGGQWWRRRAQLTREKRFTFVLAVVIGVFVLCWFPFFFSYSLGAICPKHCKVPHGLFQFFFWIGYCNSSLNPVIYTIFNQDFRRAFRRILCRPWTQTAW", "experiment": "PDSP receptor profiling", "assay_type": "binding"}, "σ2": {"target": "T3, σ2 (Rattus norvegicus, UniProt Q5U3Y7)", "T3 sequence (Q5U3Y7 1-176)": "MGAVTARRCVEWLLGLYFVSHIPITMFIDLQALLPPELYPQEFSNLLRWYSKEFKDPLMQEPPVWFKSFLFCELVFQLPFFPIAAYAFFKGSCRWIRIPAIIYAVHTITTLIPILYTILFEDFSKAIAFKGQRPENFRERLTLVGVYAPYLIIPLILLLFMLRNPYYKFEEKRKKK", "experiment": "PDSP receptor profiling", "assay_type": "binding"}, "ion channels": {"tested_on": "ion channels", "conditions": "membrane pressure and direct binding; cited from earlier work"}, "ɑ2C": {"target": "T4, ɑ2C (Homo sapiens, UniProt P18825)", "T4 sequence (P18825 1-462)": "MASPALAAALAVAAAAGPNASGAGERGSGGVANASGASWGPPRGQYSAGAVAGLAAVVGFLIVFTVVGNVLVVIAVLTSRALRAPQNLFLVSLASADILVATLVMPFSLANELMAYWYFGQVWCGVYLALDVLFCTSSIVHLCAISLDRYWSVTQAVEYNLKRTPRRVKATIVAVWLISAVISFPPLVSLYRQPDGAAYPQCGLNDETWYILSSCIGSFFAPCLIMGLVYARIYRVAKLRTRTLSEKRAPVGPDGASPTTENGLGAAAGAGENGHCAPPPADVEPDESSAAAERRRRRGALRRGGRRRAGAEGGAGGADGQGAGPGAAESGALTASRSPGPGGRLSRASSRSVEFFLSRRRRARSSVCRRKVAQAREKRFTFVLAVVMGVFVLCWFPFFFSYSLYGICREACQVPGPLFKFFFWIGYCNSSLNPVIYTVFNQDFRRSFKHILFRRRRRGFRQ", "experiment": "PDSP receptor profiling", "assay_type": "binding"}, "[2]": {"conditions": "cited from earlier work"}, "[3]": {"experiment": "Colloidal aggregate detection by dynamic light scattering", "assay_type": "physicochemical", "conditions": "critical aggregation concentration can vary several-fold with conditions"}, "MOR": {"target": "MOR (Homo sapiens, UniProt P35372)", "sequence (P35372 whole entry)": "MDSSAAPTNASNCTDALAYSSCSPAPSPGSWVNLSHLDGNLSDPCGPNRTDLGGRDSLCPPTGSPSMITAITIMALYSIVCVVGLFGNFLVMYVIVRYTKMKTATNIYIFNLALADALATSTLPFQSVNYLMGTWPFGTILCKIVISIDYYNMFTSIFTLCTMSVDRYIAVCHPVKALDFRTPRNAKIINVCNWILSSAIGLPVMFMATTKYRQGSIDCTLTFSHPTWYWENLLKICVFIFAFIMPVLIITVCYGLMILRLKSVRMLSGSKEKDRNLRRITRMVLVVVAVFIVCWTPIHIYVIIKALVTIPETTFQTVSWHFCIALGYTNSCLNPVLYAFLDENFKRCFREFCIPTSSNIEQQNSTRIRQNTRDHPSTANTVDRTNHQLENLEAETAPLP", "experiment": "PDSP receptor profiling", "assay_type": "binding"}, "[4]": {"conditions": "room temperature; air oxidation to cannabidiol hydroxyquinone; cited from earlier work"}, "D1": {"target": "D1 (Homo sapiens, UniProt P21728)", "sequence (P21728 whole entry)": "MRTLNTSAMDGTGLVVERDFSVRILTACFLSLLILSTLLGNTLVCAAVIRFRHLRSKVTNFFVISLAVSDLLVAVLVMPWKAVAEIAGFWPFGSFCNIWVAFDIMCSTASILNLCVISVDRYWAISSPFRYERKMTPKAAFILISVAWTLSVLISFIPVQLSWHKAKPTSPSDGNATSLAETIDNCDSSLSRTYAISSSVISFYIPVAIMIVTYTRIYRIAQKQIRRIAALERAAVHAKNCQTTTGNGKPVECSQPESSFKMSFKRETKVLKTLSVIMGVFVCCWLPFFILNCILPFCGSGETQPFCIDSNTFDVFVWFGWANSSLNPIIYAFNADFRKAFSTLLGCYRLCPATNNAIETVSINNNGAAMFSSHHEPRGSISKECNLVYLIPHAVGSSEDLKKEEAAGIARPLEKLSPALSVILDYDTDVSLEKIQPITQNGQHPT", "experiment": "PDSP receptor profiling", "assay_type": "binding"}, "5-HT1A receptor": {"target": "5-HT1A receptor", "conditions": "displacement of agonist [3H]-8-OH-DPAT; cited from earlier work"}, "DOR": {"target": "DOR (Homo sapiens, UniProt P41143)", "sequence (P41143 whole entry)": "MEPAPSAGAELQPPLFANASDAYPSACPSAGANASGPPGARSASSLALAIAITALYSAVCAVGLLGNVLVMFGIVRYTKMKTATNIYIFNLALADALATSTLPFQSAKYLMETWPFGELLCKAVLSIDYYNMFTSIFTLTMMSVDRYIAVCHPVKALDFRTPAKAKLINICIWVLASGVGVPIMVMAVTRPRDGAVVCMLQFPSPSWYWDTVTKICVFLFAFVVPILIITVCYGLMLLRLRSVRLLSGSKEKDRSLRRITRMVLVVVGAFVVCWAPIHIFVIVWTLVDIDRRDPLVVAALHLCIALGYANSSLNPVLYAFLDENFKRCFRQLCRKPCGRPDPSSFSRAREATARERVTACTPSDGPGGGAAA", "experiment": "PDSP receptor profiling", "assay_type": "binding"}, "H3": {"target": "H3 (Homo sapiens, UniProt Q9Y5N1)", "sequence (Q9Y5N1 whole entry)": "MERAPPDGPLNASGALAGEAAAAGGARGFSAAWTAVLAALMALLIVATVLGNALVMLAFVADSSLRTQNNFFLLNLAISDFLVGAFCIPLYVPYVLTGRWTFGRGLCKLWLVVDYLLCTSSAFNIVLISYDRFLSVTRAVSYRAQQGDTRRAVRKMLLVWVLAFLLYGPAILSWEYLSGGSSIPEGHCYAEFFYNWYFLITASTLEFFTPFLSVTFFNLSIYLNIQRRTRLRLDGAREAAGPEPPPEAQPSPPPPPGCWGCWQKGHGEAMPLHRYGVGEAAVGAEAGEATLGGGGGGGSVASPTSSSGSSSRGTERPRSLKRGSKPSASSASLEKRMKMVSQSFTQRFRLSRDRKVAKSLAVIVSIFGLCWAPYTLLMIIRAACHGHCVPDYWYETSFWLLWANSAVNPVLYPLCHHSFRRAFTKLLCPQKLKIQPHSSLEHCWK", "experiment": "PDSP receptor profiling", "assay_type": "binding"}, "[5]": {"tested_on": "malate dehydrogenase (MDH)", "experiment": "MDH orthogonal aggregation counter screen", "assay_type": "biochemical", "conditions": "33 or 100 μM; presence or absence of 0.01% Triton X-100"}, "mice": {"tested_on": "mice", "conditions": "oral single 246–2460 mg/kg or 61.5–615 mg/kg for 10 days; cited from earlier work"}, "AmpC β-lactamase": {"target": "AmpC β-lactamase (Escherichia coli, UniProt P00811)", "sequence (P00811 20-377)": "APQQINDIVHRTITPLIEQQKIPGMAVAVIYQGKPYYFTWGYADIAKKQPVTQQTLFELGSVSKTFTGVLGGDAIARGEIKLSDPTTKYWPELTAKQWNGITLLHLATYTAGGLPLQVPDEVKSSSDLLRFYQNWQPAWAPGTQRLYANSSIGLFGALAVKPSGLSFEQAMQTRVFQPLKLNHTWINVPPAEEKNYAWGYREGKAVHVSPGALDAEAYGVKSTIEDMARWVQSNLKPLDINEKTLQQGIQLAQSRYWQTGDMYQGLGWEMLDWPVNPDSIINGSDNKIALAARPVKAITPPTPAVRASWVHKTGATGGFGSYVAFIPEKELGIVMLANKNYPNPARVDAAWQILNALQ", "experiment": "AmpC colloidal aggregation counter screen", "assay_type": "biochemical", "conditions": "low micromolar concentrations; with/without detergent"}, "[6]": {"conditions": "cited from earlier work; for apparent plasma clearance (CL'): oromucosal spray"}, "KOR": {"target": "KOR (Homo sapiens, UniProt P41145)", "sequence (P41145 whole entry)": "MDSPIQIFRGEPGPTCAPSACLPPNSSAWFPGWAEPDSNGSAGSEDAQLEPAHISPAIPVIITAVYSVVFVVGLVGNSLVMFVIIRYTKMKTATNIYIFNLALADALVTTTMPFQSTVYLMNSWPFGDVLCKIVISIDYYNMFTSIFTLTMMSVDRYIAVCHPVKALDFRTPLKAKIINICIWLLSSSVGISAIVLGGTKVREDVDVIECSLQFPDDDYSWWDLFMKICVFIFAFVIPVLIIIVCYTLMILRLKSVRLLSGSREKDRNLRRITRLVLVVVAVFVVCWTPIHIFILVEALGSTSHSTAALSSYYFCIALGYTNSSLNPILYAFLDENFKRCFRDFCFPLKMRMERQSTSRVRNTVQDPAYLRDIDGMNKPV", "experiment": "PDSP receptor profiling", "assay_type": "binding"}, "CB2 receptor": {"tested_on": "CB2 receptor", "conditions": "cited from earlier work"}},
  "note": "Read-outs that look alike come from different tables or passages of the source.",
  "data": [
    {"compound": "CCCCCc1cc(O)c([C@@H]2C=C(C)CC[C@H]2C(C)C)c(O)c1", "note": "[H2-CBD]", "values": [
      {"measurement": "affinity for the CB1 receptor", "setting": "CB1 receptor", "result": "moderate affinity"}
    ]},
    {"compound": "C=C(C)[C@@H]1CCC(C)=C[C@H]1c1c(O)cc(CCCCC)cc1O", "note": "[CBD, Cannabidiol]", "values": [
      {"measurement": "inhibition at 10 µM", "setting": "5-HT2C", "result": "> 50", "unit": "%"},
      {"measurement": "change in PANSS scores", "setting": "[1]", "result": "clinically-significant reduction"},
      {"measurement": "inhibition at 10 µM", "setting": "ɑ2b", "result": "> 50", "unit": "%"},
      {"measurement": "Ki", "setting": "σ2", "result": "> 1", "unit": "µM"},
      {"measurement": "inhibition at 10 µM", "setting": "σ2", "result": "> 50", "unit": "%"},
      {"measurement": "concentration at which CBD promiscuously affects ion channels", "setting": "ion channels", "result": "0.1 to 5", "unit": "µM"},
      {"measurement": "inhibition at 10 µM", "setting": "ɑ2C", "result": "> 50", "unit": "%"},
      {"measurement": "concentration at which CBD promotes DDI and potentiates the action of many drugs", "setting": "[2]", "result": "5 to 10", "unit": "µM"},
      {"measurement": "concentration at which detectable colloidal aggregates form (DLS)", "setting": "[3]", "result": "approximately 12.5 μM"},
      {"measurement": "inhibition at 10 µM", "setting": "MOR", "result": "> 50", "unit": "%"},
      {"measurement": "chemical stability", "setting": "[4]", "result": "chemically unstable"},
      {"measurement": "inhibition at 10 µM", "setting": "D1", "result": "> 50", "unit": "%"},
      {"measurement": "EC50", "setting": "5-HT1A receptor", "result": "8 to 16", "unit": "µM"},
      {"measurement": "inhibition at 10 µM", "setting": "DOR", "result": "> 50", "unit": "%"},
      {"measurement": "inhibition at 10 µM", "setting": "H3", "result": "> 50", "unit": "%"},
      {"measurement": "inhibition of malate dehydrogenase (MDH)", "setting": "[5]", "result": "detergent-sensitive inhibition"},
      {"measurement": "number of genes altered in gene expression arrays", "setting": "mice", "result": "> 50", "unit": "genes"},
      {"measurement": "inhibition of AmpC β-lactamase", "setting": "AmpC β-lactamase", "result": "detergent-sensitive inhibition"},
      {"measurement": "plasma concentration", "setting": "[6]; humans, single dose of an oral preparation containing 100 mg of CBD", "result": "36 ng/mL and approximately 100 nM"},
      {"measurement": "volume of distribution", "setting": "[6]; oromucosal spray formulations", "result": "26,000–31,000 L"},
      {"measurement": "apparent plasma clearance (CL')", "setting": "[6]; doses 5–20 mg", "result": "2,500–4,700 L/h"},
      {"measurement": "apparent plasma clearance (CL')", "setting": "[6]; fed state", "result": 533, "unit": "L/h"},
      {"measurement": "inhibition at 10 µM", "setting": "KOR", "result": "> 50", "unit": "%"}
    ]},
    {"compound": "C=C(C)[C@H]1CCC(C)=C[C@@H]1c1c(O)cc(CCCCC)cc1O", "note": "[(+)-CBD]", "values": [
      {"measurement": "CB1 receptor affinity", "setting": "CB1 receptor", "result": "below 1 μM"},
      {"measurement": "CB2 receptor affinity", "setting": "CB2 receptor", "result": "below 1 μM"}
    ]}
  ]
}
